Measurements taken from the supplement of paper PMC10307832.

Assays:
Experiment in all cases: relative viability (nuclei count vs DMSO), 5 days (fraction); higher = more cells survive
Cediranib + Trametinib = compound: COc1cc2c(Oc3ccc4[nH]c(C)cc4c3F)ncnc2cc1OCCCN1CCCC1 [Cediranib] + CC(=O)Nc1cccc(-n2c(=O)n(C3CC3)c(=O)c3c(Nc4ccc(I)cc4F)n(C)c(=O)c(C)c32)c1 [Trametinib] (partner 0.02 µM)
Method in brief: (§1)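 Lung cancer cell lines were pin-tool dosed in 1536-well plates on the day after seeding, with either a lone drug or a fixed anchor-drug dose plus five library-drug doses (not always all listed) in √10 steps. Nuclei were counted on 4× images after 5 days. Relative viability is the ratio of treated-well to vehicle-well nuclei counts, with each value a median of duplicate plates.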

Cediranib + Dasatinib = compound: COc1cc2c(Oc3ccc4[nH]c(C)cc4c3F)ncnc2cc1OCCCN1CCCC1 [Cediranib] + Cc1nc(Nc2ncc(C(=O)Nc3c(C)cccc3Cl)s2)cc(N2CCN(CCO)CC2)n1 [Dasatinib] (partner 0.075 µM)
Method in brief: as §1

Decitabine + Linsitinib = compound: Nc1ncn([C@H]2C[C@H](O)[C@@H](CO)O2)c(=O)n1 [Decitabine] + C[C@]1(O)C[C@@H](c2nc(-c3ccc4ccc(-c5ccccc5)nc4c3)c3c(N)nccn32)C1 [Linsitinib] (partner 1 µM)
Method in brief: as §1

Decitabine + Dasatinib = compound: Nc1ncn([C@H]2C[C@H](O)[C@@H](CO)O2)c(=O)n1 [Decitabine] + Cc1nc(Nc2ncc(C(=O)Nc3c(C)cccc3Cl)s2)cc(N2CCN(CCO)CC2)n1 [Dasatinib] (partner 0.075 µM)
Method in brief: as §1

| Cell Line | relative viability (Cediranib + Trametinib; first compound 0.04 µM) | relative viability (Cediranib + Trametinib; first compound 0.1265 µM) | relative viability (Cediranib + Trametinib; first compound 0.4 µM) | relative viability (Cediranib + Trametinib; first compound 1.265 µM) | relative viability (Cediranib + Trametinib; first compound 4 µM) | relative viability (Cediranib + Dasatinib; first compound 0.04 µM) | relative viability (Cediranib + Dasatinib; first compound 0.1265 µM) | relative viability (Cediranib + Dasatinib; first compound 0.4 µM) | relative viability (Cediranib + Dasatinib; first compound 1.265 µM) | relative viability (Cediranib + Dasatinib; first compound 4 µM) | relative viability (Decitabine + Linsitinib; first compound 0.04 µM) | relative viability (Decitabine + Linsitinib; first compound 0.1265 µM) | relative viability (Decitabine + Linsitinib; first compound 0.4 µM) | relative viability (Decitabine + Linsitinib; first compound 1.265 µM) | relative viability (Decitabine + Linsitinib; first compound 4 µM) | relative viability (Decitabine + Dasatinib; first compound 0.04 µM) | relative viability (Decitabine + Dasatinib; first compound 0.1265 µM) | relative viability (Decitabine + Dasatinib; first compound 0.4 µM) | relative viability (Decitabine + Dasatinib; first compound 4 µM) | relative viability (Decitabine + Dasatinib; first compound 1.265 µM) |
| --- | --- | --- | --- | --- | --- | --- | --- | --- | --- | --- | --- | --- | --- | --- | --- | --- | --- | --- | --- | --- |
| 201T | 0.705 | 0.792 | 0.707 | 0.719 | 0.724 | 0.622 | 0.67 | 0.628 | 0.575 | 0.582 | 1.06 | 1.16 | 1.3 | 1.1 | 0.924 | 0.567 | 0.595 | 0.578 | 0.517 |  |
| A549 |  |  |  |  |  |  |  |  |  |  | 0.535 | 0.731 | 0.554 | 0.299 | 0.151 |  |  |  |  |  |
| A-427 | 0.747 |  | 0.717 | 0.684 | 0.737 | 0.683 |  | 0.672 | 0.596 | 0.919 | 0.807 | 0.674 | 0.446 | 0.368 | 0.275 | 0.51 | 0.341 | 0.214 | 0.206 | 0.196 |
| ABC-1 |  |  |  |  |  | 0.536 | 0.651 | 0.448 | 0.474 | 0.457 | 0.705 | 0.677 | 0.639 | 0.611 | 0.523 | 0.451 | 0.553 | 0.588 | 0.421 | 0.416 |
| BEN | 1.12 | 0.936 | 1.02 | 1.02 | 0.986 | 0.331 |  | 0.362 | 0.229 | 0.332 | 0.994 | 0.809 | 0.671 | 0.46 | 0.43 | 0.373 | 0.406 | 0.225 | 0.218 | 0.251 |
| CAL-12T | 0.443 | 0.362 | 0.319 | 0.248 | 0.341 | 0.438 | 0.285 | 0.504 | 0.489 | 0.364 | 0.657 | 0.805 | 0.494 | 0.451 | 0.347 | 0.356 | 0.477 |  | 0.235 | 0.212 |
| COR-L23 | 0.608 | 0.578 | 0.573 | 0.425 | 0.532 | 0.522 | 0.503 | 0.499 | 0.57 | 0.662 | 0.647 | 0.482 | 0.374 | 0.272 | 0.19 | 0.255 | 0.347 | 0.29 | 0.18 | 0.161 |
| COR-L 105 | 0.438 | 0.478 | 0.415 | 0.384 | 0.43 | 0.346 | 0.375 | 0.388 | 0.352 | 0.368 | 1.02 | 0.768 | 0.738 | 0.506 | 0.486 | 0.254 | 0.353 | 0.262 | 0.305 | 0.282 |
| Calu-6 |  |  |  |  |  |  |  |  |  |  | 0.807 | 0.682 | 0.494 | 0.33 | 0.193 |  |  |  |  |  |
| ChaGo-K-1 | 0.875 | 0.821 | 0.878 | 0.868 | 0.909 | 0.524 | 0.508 | 0.608 | 0.578 | 0.626 |  |  |  |  |  | 0.467 | 0.549 | 0.311 | 0.346 | 0.329 |
| EBC-1 |  |  |  |  |  |  |  |  |  |  | 0.693 | 0.704 | 0.417 | 0.316 | 0.247 |  |  |  |  |  |
| EKVX | 0.283 | 0.4 | 0.343 |  | 0.402 | 0.534 | 0.625 | 0.564 | 0.582 | 0.591 | 0.792 | 0.854 | 0.657 | 0.386 | 0.306 | 0.479 | 0.494 | 0.368 | 0.329 | 0.36 |
| EMC-BAC-2 | 0.823 |  | 0.842 | 0.82 | 0.923 | 0.316 | 0.603 | 0.365 | 0.309 | 0.314 | 0.797 | 0.81 | 0.652 | 0.612 | 0.583 | 0.334 | 0.343 | 0.343 | 0.26 | 0.284 |
| EPLC-272H | 0.318 |  | 0.278 | 0.269 | 0.242 | 0.303 |  | 0.363 |  | 0.43 | 0.811 | 0.939 |  | 0.596 | 0.548 |  | 0.297 | 0.118 | 0.144 | 0.232 |
| H3255 | 0.606 |  | 0.623 |  | 0.567 | 0.409 |  | 0.332 | 0.302 | 0.36 | 0.488 | 0.88 | 0.551 | 0.554 | 0.468 |  | 0.341 | 0.251 | 0.252 | 0.351 |
| HARA | 0.803 | 0.81 | 0.62 | 0.882 | 0.831 | 0.193 |  | 0.247 | 0.237 | 0.239 | 0.896 | 0.776 | 0.69 | 0.382 | 0.312 | 0.311 | 0.261 | 0.232 | 0.138 | 0.257 |
| HCC-15 | 0.389 |  | 0.362 | 0.337 | 0.404 | 0.662 |  | 0.585 | 0.707 | 0.608 | 0.777 | 0.772 | 0.562 | 0.51 | 0.434 | 0.625 | 0.581 | 0.408 | 0.333 | 0.361 |
| HCC-44 | 1.2 | 0.907 | 1.1 | 1.05 | 1.07 |  |  |  |  |  | 0.686 | 0.644 | 0.495 | 0.292 | 0.351 |  |  |  |  |  |
| HCC-78 | 0.742 | 1.02 | 0.721 | 0.915 | 0.919 | 0.376 | 0.363 | 0.405 | 0.29 | 0.406 | 0.538 | 0.545 | 0.407 | 0.371 | 0.319 | 0.269 | 0.334 | 0.361 | 0.208 | 0.285 |
| HCC-366 | 0.384 | 0.404 | 0.301 | 0.327 | 0.398 | 0.649 | 0.622 | 0.553 | 0.636 | 0.711 | 0.535 | 0.743 | 0.339 | 0.14 | 0.111 | 0.608 | 0.632 | 0.567 | 0.128 | 0.195 |
